According to patent US9241928B2, “Antimicrobial compounds” (The General Hospital Corporation, priority 2009, dated 2016):
Values after ≈ are worked out from the molar mass of the structure shown.

Legend:
[1] = tested on: C. elegans infected with E. faecalis; assay: Dose response time courses in the C. elegans-E. faecalis infection assay; type: in vivo, Caenorhabditis elegans; conditions: Effective Concentration: survival significantly different from mock-treated, p-value <0.05, logrank; read-out: EC
Description: (§1) glp-4(bn2); sek-1 (km4) mutant worms were grown to gravid adult stage. 1,000 worms at the L1 stage were grown for 5.2 days at 15° C. on 9-cm plates of SK agar media spread with a lawn of E. coli strain HB101. Embryos from the gravid adults were isolated by a previously described hypochlorite method (see Tan et al., (1999) Proc. Natl. Acad. Sci. USA 96, 715-720) and hatched at 15° C. for 2 days. Approximately 4,500 of the Ll hatchlings were grown on each 9-cm plate of SK-NS agar (SK media with 62.5 U/ml nystatin and 100 μg/ml streptomycin) and with lawns of E. coli HB101. These worms were grown at 25° C. for 52 hours to generate sterile, young adults.
(§2) A culture of E. faecalis MMH594 was grown in BHI broth (BD Difco) with 80 μg/ml kanamycin at 37° C. for 6 hours and 100 μl of the culture were spread onto each 9-cm plate of BHI agar containing 80 μg/mlkanamycin. Lawns of E. faecalis were grown at 25° C. for 16 hours and transferred to 15° C. for 8 hours.
(§3) Sterile adult worms were resuspended in M9 buffer and washed twice with M9 in a 1:10 ratio to remove E. coli. 8,000 worms were pipetted onto each lawn of E. faecalis and incubated 15 hours at 15° C. After infection, the worms were resuspended in M9 and used as described below. 384-well plates (Corning #3712) were filled with 55 μl media (see below) using a Thermo Scientific MULTIDROP Combi reagent dispenser. 0.3 μl of a candidate compound in DSMO were pin transferred into each well using a CyBio CYBI-Well vario transfer system. The plates were agitated using an Eppendorf MIXMATE at 1,800 rpm for 15 seconds. Using the Union Biometrica Complex Object Parametric Analyzer and Sorter (COPAS) BIOSORT worm sorter according to manufacturer's protocols, 15 of the infected worms were transferred to each well in a total volume of approximately 15 μl. Total volume per well is 70 μl/well with a final composition of the media being 20% BHI, […], 80 μg/ml kanamycin, 62.5 U/ml nystatin, 1% DMSO, and 19% sheath solution (Union Biometrica Part #300-5101-000). Plates were vortexed for 5 seconds, centrifuged at 1000×g for 10 seconds, and sealed with gas permeable membranes (BREATHEASY Diversified). Plates were placed in a single layer on the top shelves in a 26.3° C. incubator at 85% relative humidity (RH) and incubated without agitation for 5 days.
The dose dependence of certain antimicrobial compounds identified by the assay above were studied. These compounds were purchased in a larger amount from commercial sources. For each of these compounds, an infection assay was performed essentially as described above at different concentrations except that SYTOX staining was not used. Instead, bright-field images of the wells were acquired at daily time points and scored manually for worm survival by analyzing worm body positioning. […] All compounds used in this assays were confirmed for their identity and purity by liquid chromatography/mass spectrometry.

E. faecalis MMH594 = assay: MIC assay, E. faecalis in vitro; type: cell-based; conditions: Enterococcus faecalis; E. faecalis MMH594 in 20% BHI, 80% M9, 37° C., 15 hours, scored by eye
Description: A culture of E. faecalis MMH594 was grown overnight in BHI broth to stationary phase at 37° C. with aeration. The culture was diluted to an approximate density of […] in worm infection media (20% BHI, 80% M9 buffer). 12.5 μl of the bacterial culture dilution was inoculated into 384-well plates containing 12.5 μl of 2-fold serial dilutions of a test compound. […] Plates were incubated at 37° C. for 15 hours and scored by eye for bacterial growth.

[2] = tested on: MRSA infection in Caenorhabditis elegans; assay: MRSA infection assay in C. elegans (liquid); type: in vivo; conditions: 5 days
Text: To screen/test candidate compounds for their efficacy against Methicillin-resistant Staphylococcus aureus (MRSA) using Caenorhabditis elegans (C. elegans), a liquid high throughput screening assay was developed. In contrast to the Enterococcus faecalis infection assay, where worms are pre-infected with E. faecalis on agar prior to the start of the screening assay and then infected worms are transferred to microtiter plates using the COPAS BioSort robot, the infection of worms with MRSA occurred directly in the liquid medium. This liquid infection protocol with MRSA was developed because the COPAS BioSort, the large particle sorter used to dispense worms into multiwell plates, is a pressurized system that can generate aerosols. Because MRSA is a potentially dangerous pathogen for immune competent individuals, sorting MRSA-infected worms in the COPAS BioSort was deemed to be potentially hazardous.
The MRSA infection assay was carried out by incubating C. elegans with three MRSA strains (i.e., USA100, USA400 and MW2) in 96 or 384-well microtiter plates and assessing whether worms were live or dead after a 5 day incubation.
The MRSA infection assay was performed as follows: Worms were grown on agar using non-pathogenic E. coli as a food source until they reached the L4/young adult stage. A small volume of M9 buffer was added to the agar plates to float worms gently off the food source. The worms were then transferred into a large conical tube and washed 2 times by allowing worms to settle, aspirating the supernatant and adding fresh M9 buffer. 15 worms were then transferred using a COPAS BioSort large particle sorter into a 96-well plate containing […] of M9. […] After the worms were stained for 18 hours, images of the plates were acquired in bright field and red fluorescence channels using a Molecular Devices Discovery-1 or ImageXpress automated microscopy system. The total number of worms was counted in the bright field image and the number of dead animals are determined by positive SYTOX staining. […]

[3] = tested on: C. elegans infected with E. faecalis; assay: Automated infection assay for primary compound screening (SYTOX staining, CELLPROFILER); type: in vivo, Caenorhabditis elegans
Description: In general, the area of each well that is SYTOX-positive in the fluorescence image is measured and normalized by the total area occupied by all worms, which is quantified in the bright field image. This typically requires illumination correction to flatten lighting abnormalities, adaptive thresholding, and size- and contrast-based filters and masks to exclude debris and other artifacts. By calculating the ratio of the fluorescent area (which corresponds to the area occupied by dead worms) to the total area occupied by all worms, one can accurately determine the number of dead worms in each well. […] In a well where the worms are rescued by ampicillin treatment, 3 of the 14 worms were dead based on manual scoring. The ratio of the fluorescent area to the area occupied by all worms obtained by the CELLPROFILER analysis is correspondingly low at 0.12.
as §1, §2, §3
After 5 days, the bacteria and liquid media in the assay plates were removed as described below. First, the bacteria were re-suspended by shaking on the MIXMATE for 15 seconds at 1,800 rpm, the sealing membrane was removed, and the worms were allowed to settle to the bottom of the wells for 3 minutes. […]

[4] = tested on: E. faecalis strain MMH594; assay: Antimicrobial (bacterial killing) assay; type: cell-based, Enterococcus faecalis; conditions: mM concentrations, 1 to 30 minutes, room temperature
Description: Compounds 6, 7, 15 were purchased from TimTec and ChemDiv, dissolved in DMSO at a concentration of 5 or 10 mg/ml, and further diluted in DMSO as indicated. E. faecalis strain MMH594 was grown overnight with aeration at 37° C. in Bacto brain heart infusion (BHI) broth (Becton Dickinson), transferred to ice, and washed in phosphate-buffered saline (PBS; pH 7.2). Equal volumes of a dissolved compound and bacteria were mixed, incubated at room temperature for 1 to 30 minutes, ten-fold serially diluted in PBS, and plated in […] droplets on BHI agar plates. Plates were incubated at room temperature until colonies were visible.

MIC (E. faecalis MMH594) [µg/mL] | Compound | minimal effective concentration [1] [µg/mL] | bactericidal activity (FIGS. 7A and 7B) [4] | also measured
> 100 | CSc1ccc(-c2cccs2)nn1 [Compound 8] | 3.13 | – | –
25 (≈ 65.8 µM) | Oc1c(C(Nc2ccccn2)c2cccc(F)c2)cc(Cl)c2cccnc12 (stereo not shown) [Compound 2] | 1.56 | – | –
1.56 (≈ 5.07 µM) | CC(C)(C)C1=NN(c2nc3ccc(Cl)cc3s2)C(=O)C1 [Compound 4] | 0.39 | – | –
> 100 | Cc1c(O)ccc(/C=N/Nc2nc(-c3ccc(Br)cc3)nc3ccccc23)c1O [Compound 9] | 3.13 | – | survival of MRSA-infected worms (FIG. 4) ([2]; 25 and 50 μg/ml): resulted in survival of MRSA-infected worms
– | CC1(C)S[C@@H]2[C@H](NC(=O)[C@H](N)c3ccccc3)C(=O)N2[C@H]1C(=O)O [ampicillin] | – | – | z-score, screen average ([3]; ampicillin-treated wells, 21 μg/ml): −8.70; dead worms based on manual scoring ([3]; of 14 worms in the well, ampicillin treatment): 3; ratio of the fluorescent area to the area occupied by all worms (CELLPROFILER) ([3]; well where worms are rescued by ampicillin treatment): 0.12
12.5 (≈ 32.9 µM) | Oc1c(C(Nc2ccccn2)c2ccccc2F)cc(Cl)c2cccnc12 (stereo not shown) [Compound 1] | 0.78 | – | –
> 100 | O=C(CCSCc1ccc(Cl)cc1)N1CCN(c2ccccc2)CC1 [Compound 7] | 25 | did not show any bactericidal activity | –
12.5 (≈ 34.5 µM) | Oc1c(C(Nc2ccccn2)c2ccccn2)cc(Cl)c2cccnc12 (stereo not shown) [Compound 3] | 3.13 | – | survival of MRSA-infected worms (FIG. 4) ([2]; 6.25 and 12.5 μg/ml): resulted in survival of MRSA-infected worms
– | CC(=O)O [acetic acid, reference compound] | – | did not show any bactericidal activity | –
– | CCC(=O)O [propionic acid, reference compound] | – | did not show any bactericidal activity | –
